According to patent US11884675B2, “Heterocyclic compounds as triggering receptor expressed on myeloid cells 2 agonists and methods of use” (AMGEN INC., priority 2020, dated 2024):

molecular target: hTREM2 (Homo sapiens, UniProt Q9NZC2); experiment: TREM2 activity by cellular Syk phosphorylation (AlphaScreen/AlphaLISA) in TREM2/DAP12-HEK cells, used for Examples 1-305; assay type: cell-based; set-up: expressed in transfected cells; details: HEK293 Cells
Method in brief: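 Single-cell-cloned HEK293 cells overexpressing TREM2 and DAP12, seeded 20 h, exposed to test articles (1% final DMSO) for 45 min at room temperature. Lysates read for phospho-Syk (Tyr525/526) vs total Syk by AlphaScreen. Signal normalised as percent of control between isotype IgG and 100 nM anti-TREM2 antibody; 4-parameter logistic fit.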

hTREM2, sequence (Q9NZC2 19-230): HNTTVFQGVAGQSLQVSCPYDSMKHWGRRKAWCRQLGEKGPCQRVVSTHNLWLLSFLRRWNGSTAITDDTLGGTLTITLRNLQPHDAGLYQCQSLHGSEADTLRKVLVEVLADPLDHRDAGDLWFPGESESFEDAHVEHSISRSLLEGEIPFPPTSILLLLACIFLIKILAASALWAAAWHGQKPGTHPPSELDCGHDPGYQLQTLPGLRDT
hTREM2, sequence (O43914 22-113 partner): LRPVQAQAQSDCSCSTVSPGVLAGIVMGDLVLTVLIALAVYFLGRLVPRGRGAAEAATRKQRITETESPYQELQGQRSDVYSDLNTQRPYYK

| Structure (SMILES) | EC50 [nM] | hTREM2 Emax |
| --- | --- | --- |
| Cc1nc2nc(N3CCO[C@@H]([C@H]4CCOC4)C3)nc(-c3ccc(F)cc3F)c2nc1C [Example 251, (S)-4-(4-(2,4-difluorophenyl)-6,7-dimethylpteridin-2-yl)-2-((S)-tetrahydrofuran-3-yl)morpholine] | 500 to 3000 | +++ (Emax>150 and ≤250) |
| Cc1nc2cc([C@@H]3CCO[C@H](c4cnn(C)c4)C3)nc(-c3ccc(Cl)cc3F)c2nc1C (single isomer, unassigned) [Example 193] | 50 to 500 | ++++ (Emax>250) |
| Cc1ccc2c(-c3ccc(Cl)cc3F)nc([C@@H]3CCO[C@H](c4cnn(C)c4)C3)nc2n1 [Example 288, 4-(4-chloro-2-fluorophenyl)-7-methyl-2-((2S,4R)-2-(1-methyl-1H-pyrazol-4-yl)tetrahydro-2H-pyran-4-yl)pyrido[2,3-d] pyrimidine] | ≤ 50 | ++ (Emax>100 and ≤150) |
| Cc1ccc(-c2nc([C@@H]3CCO[C@H](c4ccnc(C)c4)C3)nc3nc(C)c(C)cc23)c(F)c1 (single isomer, unassigned) [Example 223] | 50 to 500 | ++++ (Emax>250) |
| Cc1ccc2c(-c3ccc(Cl)cc3F)nc([C@@H]3CCO[C@H](c4cnn(C5CC5)c4)C3)nc2n1 [Example 260, 4-(4-chloro-2-fluorophenyl)-2-((2S,4R)-2-(1-cyclopropyl-1H-pyrazol-4-yl)tetrahydro-2H-pyran-4-yl)-7-methylpyrido [2,3-d]pyrimidine] | 500 to 3000 | +++ (Emax>150 and ≤250) |
| Cc1cnc2c(-c3ccc(Cl)cc3F)nc([C@@H]3CCO[C@H](c4cnn(C5CC5)c4)C3)nc2n1 [Example 270, 4-(4-chloro-2-fluorophenyl)-2-((2S,4R)-2-(1-cyclopropyl-1H-pyrazol-4-yl)tetrahydro-2H-pyran-4-yl)-7-methylpteridine] | 500 to 3000 | +++ (Emax>150 and ≤250) |
| Cc1ccc(-c2nc(N3CCO[C@@H](c4ccnc(C)c4)C3)nc3nc(C)c(C)nc23)c(F)c1 [Example 39, 4-(2-fluoro-4-methylphenyl)-6,7-dimethyl-2-((2S)-2-(2-methyl-4-pyridinyl)-4-morpholinyl)pteridine] | ≤ 50 | +++ (Emax>150 and ≤250) |
| CCN1Cc2c(cc(N3CCO[C@@H](c4cnn(C)c4)C3)nc2-c2ccc(Cl)cc2F)C1=O [Example 121, 4-(4-chloro-2-fluorophenyl)-2-ethyl-6-((2S)-2-(1-methyl-1H-pyrazol-4-yl)-4-morpholinyl)-2,3-dihydro-1H-pyrrolo[3,4-c]pyridin-1-one] | 50 to 500 | ++++ (Emax>250) |
| Cc1cnc2c(-c3ccc(Cl)cc3F)nc([C@H]3CCO[C@@H](c4cnn(C5CC5)c4)C3)nc2n1 (single isomer, unassigned) [Example 170] | ≤ 50 | ++++ (Emax>250) |
| Cc1cc([C@H]2CN(c3nc(-c4ccc(Cl)cc4F)c4ccc(C)nc4n3)CCO2)cnn1 (single isomer, unassigned) [Example 86] | ≤ 50 | ++++ (Emax>250) |
| CCn1cc([C@H]2CN(c3cc4nc(C)cnc4c(-c4ccc(Cl)cc4F)n3)CCO2)cn1 [Example 75, 5-(4-chloro-2-fluorophenyl)-7-((2S)-2-(1-ethyl-1H-pyrazol-4-yl)-4-morpholinyl)-2-methylpyrido[3,4-b]pyrazine] | 50 to 500 | ++++ (Emax>250) |
| Cc1nc2nc(N3CCOC(C4CCOC4)C3)nc(-c3ccc(Cl)cc3F)c2nc1C (stereo not shown) [Example 26, 4-(4-chloro-2-fluorophenyl)-6,7-dimethyl-2-(2-(tetrahydro-3-furanyl)-4-morpholinyl)pteridine] | ≤ 50 | ++++ (Emax>250) |
| Cc1cc([C@H]2CN(c3cc4nc(C)cnc4c(-c4ccc(Cl)cc4F)n3)CCO2)ccn1 [Example 77, 5-(4-chloro-2-fluorophenyl)-2-methyl-7-((2S)-2-(2-methyl-4-pyridinyl)-4-morpholinyl)pyrido[3,4-b]pyrazine] | ≤ 50 | +++ (Emax>150 and ≤250) |
| Cc1cc([C@@H]2C[C@H](c3nc(-c4ccc(F)cc4F)c4nc(C)c(C)nc4n3)CCO2)ccn1 [Example 252, 4-(2,4-difluorophenyl)-6,7-dimethyl-2-((2S,4R)-2-(2-methylpyridin-4-yl)tetrahydro-2H-pyran-4-yl)pteridine] | ≤ 50 | +++ (Emax>150 and ≤250) |

The next lines start with the values.

| EC50 [nM] | hTREM2 Emax | Structure (SMILES) |
| --- | --- | --- |
| 500 to 3000 | + (Emax>45 and ≤100) | Cc1cc2c(OC[C@@H]3C[C@H]3C(F)(F)F)nc(N3CCO[C@@H](c4cnn(C)c4)C3)nc2nc1C [Example 110, 6,7-dimethyl-2-((2S)-2-(1-methyl-1H-pyrazol-4-yl)-4-morpholinyl)-4-(((1R,2R)-2-(trifluoromethyl)cyclopropyl)methoxy)pyrido[2,3-d]pyrimidine] |
| ≤ 50 | +++ (Emax>150 and ≤250) | Cc1cc([C@H]2CN(c3nc4nc(C)c(C)nc4c([C@H]4C[C@H](C(F)(F)F)C4)n3)CCO2)cnn1 [Example 51, 6,7-dimethyl-2-((2S)-2-(6-methyl-4-pyridazinyl)-4-morpholinyl)-4-(trans-3-(trifluoromethyl)cyclobutyl)pteridine] |
| ≤ 50 | ++++ (Emax>250) | Cc1cc([C@H]2CN(c3nc(-c4ccc(F)cc4F)c4cc(C)c(C)nc4n3)CCO2)ccn1 [Example 168, 4-(2,4-difluorophenyl)-6,7-dimethyl-2-((2S)-2-(2-methyl-4-pyridinyl)-4-morpholinyl)pyrido[2,3-d] pyrimidine] |
| ≤ 50 | +++ (Emax>150 and ≤250) | Cc1nc2nc(N3CCO[C@@H](c4cnn(C)c4)C3)nc([C@H]3CC[C@H](C)CC3)c2nc1C [Example 136, 6,7-dimethyl-4-(trans-4-methylcyclohexyl)-2-((2S)-2-(1-methyl-1H-pyrazol-4-yl)-4-morpholinyl)pteridine] |
| 50 to 500 | ++++ (Emax>250) | Cc1nc2nc(N3CCO[C@@H](c4cnn(C)c4)C3)nc(-c3ccc(Cl)cn3)c2nc1C [Example 291, (S)-4-(4-(5-chloropyridin-2-yl)-6,7-dimethylpteridin-2-yl)-2-(1-methyl-1H-pyrazol-4-yl)morpholine] |
| 500 to 3000 | ++ (Emax>100 and ≤150) | Cn1cc([C@H]2CN(c3cc(-c4ccc(Cl)cc4F)c4cccnc4n3)CCO2)cn1 [Example 155, 4-(4-chloro-2-fluorophenyl)-2-((2S)-2-(1-methyl-1H-pyrazol-4-yl)-4-morpholinyl)-1,8-naphthyridine] |
| ≤ 50 | +++ (Emax>150 and ≤250) | Cc1ccc2c(-c3ccc(F)cc3F)nc(N3CCO[C@@H](c4cnn(C5CC5)c4)C3)nc2n1 [Example 92, 2-((2S)-2-(1-cyclopropyl-1H-pyrazol-4-yl)-4-morpholinyl)-4-(2,4-difluorophenyl)-7-methylpyrido[2,3-d]pyrimidine] |
| ≤ 50 | ++++ (Emax>250) | Cc1ncc([C@@H]2CN(c3nc(-c4ccc(Cl)cc4F)c4nc(C)c(C)nc4n3)CCO2)cn1 (single isomer, unassigned) [Example 25] |
| 50 to 500 | + (Emax>45 and ≤100) | Cc1nc2nc(N3CCO[C@@H](c4cnn(C)c4)C3)nc(N3CCC(C)(C)CC3)c2nc1C [Example 67, 4-(4,4-dimethyl-1-piperidinyl)-6,7-dimethyl-2-((2S)-2-(1-methyl-1H-pyrazol-4-yl)-4-morpholinyl)pteridine] |
| ≤ 50 | ++++ (Emax>250) | Cc1ccc(-c2nc([C@H]3CCO[C@@H](c4cnn(C)c4)C3)nc3nc(C)c(C)nc23)c(F)c1 (single isomer, unassigned) [Example 183] |
| ≤ 50 | ++++ (Emax>250) | Cc1nc2nc(N3CCO[C@@H](c4cnn(C5CC5)c4)C3)nc(-c3ccc(Cl)cc3F)c2nc1C [Example 22, 4-(4-chloro-2-fluorophenyl)-2-((2S)-2-(1-cyclopropyl-1H-pyrazol-4-yl)-4-morpholinyl)-6,7-dimethylpteridine] |
| 3000 to 100000 | ++ (Emax>100 and ≤150) | Cc1cnc2c(n1)nc(N1CCO[C@@H](c3cnn(C)c3)C1)nc2[C@H]1C[C@@H](C(F)(F)F)C1 [Example 274, (S)-2-(1-methyl-1H-pyrazol-4-yl)-4-(7-methyl-4-((1s,3R)-3-(trifluoromethyl)cyclobutyl)pteridin-2-yl)morpholine] |
| ≤ 50 | ++ (Emax>100 and ≤150) | Cc1cc2c(nc(N3CCO[C@@H](c4cnn(C5CC5)c4)C3)nc2[C@H]2C[C@H](C(F)(F)F)C2)nc1C [Example 113, 2-((2S)-2-(1-cyclopropyl-1H-pyrazol-4-yl)-4-morpholinyl)-6,7-dimethyl-4-(trans-3-(trifluoromethyl)cyclobutyl)pyrido[2,3-d]pyrimidine] |
| 50 to 500 | +++ (Emax>150 and ≤250) | Cc1cc([C@H]2CN(c3cc4nc(C)c(C)nc4c([C@H]4C[C@H](C(F)(F)F)C4)n3)CCO2)ccn1 [Example 82] |
| 3000 to 100000 |  | Cc1ccc2c(C34CC(C(F)(F)F)(C3)C4)nc(N3CCO[C@@H](c4cnn(C5CC5)c4)C3)nc2n1 [Example 101, 2-((2S)-2-(1-cyclopropyl-1H-pyrazol-4-yl)-4-morpholinyl)-7-methyl-4-(3-(trifluoromethyl)bicyclo[1.1.1]pentan-1-yl)pyrido[2,3-d]pyrimidine] |
| ≤ 50 | + (Emax>45 and ≤100) | Cc1cc([C@H]2CN(c3nc(C45CC(C(F)(F)F)(C4)C5)c4ccc(C)nc4n3)CCO2)ccn1 [Example 102, 7-methyl-2-((2S)-2-(2-methyl-4-pyridinyl)-4-morpholinyl)-4-(3-(trifluoromethyl)bicyclo[1.1.1]pentan-1-yl)pyrido[2,3-d]pyrimidine] |
| ≤ 50 | +++ (Emax>150 and ≤250) | Cc1cnc2c(-c3ccc(F)cc3F)nc(N3CCO[C@@H](c4cnn(C5CC5)c4)C3)nc2n1 [Example 7, 2-((2S)-2-(1-cyclopropyl-1H-pyrazol-4-yl)-4-morpholinyl)-4-(2,4-difluorophenyl)-7-methylpteridine] |
